Test results published in PubChem BioAssay AID1259407 (Chemical Carcinogenesis Research Information System (CCRIS), 2018).
Calls of active or inactive are those of the source. How the calls were made is not given here.

Tested on: CCRIS mutagenicity, Ames/micronucleus/aberration tests
Assay: CCRIS mutagenicity studies

O=C(O)CN(CC(=O)O)CC(=O)O
mutagenic call (Test System: AMES SALMONELLA TYPHIMURIUM, Strain/Indicator: TA1535, Metabolic Activation: NONE, Method: STANDARD PLATE): inactive; negative | mutagenic call (Test System: AMES SALMONELLA TYPHIMURIUM, Strain/Indicator: TA1535, Metabolic Activation: NONE, Method: SUSPENSION/PLATE): inactive; negative | mutagenic call (Test System: AMES SALMONELLA TYPHIMURIUM, Strain/Indicator: TA1535, Metabolic Activation: RAT, LIVER, S-9, AROCLOR 1254 (10 OR 30%), Method: PREINCUBATION): inactive; negative | mutagenic call (Test System: AMES SALMONELLA TYPHIMURIUM, Strain/Indicator: TA1535, Metabolic Activation: RAT, LIVER, S-9, AROCLOR 1254, Method: STANDARD PLATE): inactive; negative | mutagenic call (Test System: AMES SALMONELLA TYPHIMURIUM, Strain/Indicator: TA1535, Metabolic Activation: RAT, LIVER, S-9, Method: STANDARD PLATE): inactive; negative | mutagenic call (Test System: AMES SALMONELLA TYPHIMURIUM, Strain/Indicator: TA1537, Metabolic Activation: HAMSTER, LIVER, S-9, AROCLOR 1254 (10 OR 30%), Method: PREINCUBATION): inactive; negative | mutagenic call (Test System: AMES SALMONELLA TYPHIMURIUM, Strain/Indicator: TA1537, Metabolic Activation: HAMSTER, LIVER, S-9, AROCLOR 1254, Method: STANDARD PLATE): inactive; negative | mutagenic call (Test System: AMES SALMONELLA TYPHIMURIUM, Strain/Indicator: TA1537, Metabolic Activation: HAMSTER, LIVER, S-9, Method: STANDARD PLATE): inactive; negative | mutagenic call (Test System: AMES SALMONELLA TYPHIMURIUM, Strain/Indicator: TA1537, Metabolic Activation: MOUSE, LIVER, S-9, AROCLOR 1254, Method: STANDARD PLATE): inactive; negative | mutagenic call (Test System: AMES SALMONELLA TYPHIMURIUM, Strain/Indicator: TA1537, Metabolic Activation: MOUSE, LIVER, S-9, Method: STANDARD PLATE): inactive; negative | mutagenic call (Test System: AMES SALMONELLA TYPHIMURIUM, Strain/Indicator: TA1537, Metabolic Activation: NONE, Method: PREINCUBATION): inactive; negative | mutagenic call (Test System: AMES SALMONELLA TYPHIMURIUM, Strain/Indicator: TA1537, Metabolic Activation: NONE, Method: STANDARD PLATE): inactive; negative | mutagenic call (Test System: AMES SALMONELLA TYPHIMURIUM, Strain/Indicator: TA1537, Metabolic Activation: NONE, Method: SUSPENSION/PLATE): inactive; negative | mutagenic call (Test System: AMES SALMONELLA TYPHIMURIUM, Strain/Indicator: TA1537, Metabolic Activation: RAT, LIVER, S-9, AROCLOR 1254 (10 OR 30%), Method: PREINCUBATION): inactive; negative | mutagenic call (Test System: AMES SALMONELLA TYPHIMURIUM, Strain/Indicator: TA1537, Metabolic Activation: RAT, LIVER, S-9, AROCLOR 1254, Method: STANDARD PLATE): inactive; negative | mutagenic call (Test System: AMES SALMONELLA TYPHIMURIUM, Strain/Indicator: TA1537, Metabolic Activation: RAT, LIVER, S-9, Method: STANDARD PLATE): inactive; negative | mutagenic call (Test System: AMES SALMONELLA TYPHIMURIUM, Strain/Indicator: TA1538, Metabolic Activation: HAMSTER, LIVER, S-9, AROCLOR 1254, Method: STANDARD PLATE): inactive; negative | mutagenic call (Test System: AMES SALMONELLA TYPHIMURIUM, Strain/Indicator: TA1538, Metabolic Activation: HAMSTER, LIVER, S-9, Method: STANDARD PLATE): inactive; negative | mutagenic call (Test System: AMES SALMONELLA TYPHIMURIUM, Strain/Indicator: TA1538, Metabolic Activation: MOUSE, LIVER, S-9, AROCLOR 1254, Method: STANDARD PLATE): inactive; negative | mutagenic call (Test System: AMES SALMONELLA TYPHIMURIUM, Strain/Indicator: TA1538, Metabolic Activation: MOUSE, LIVER, S-9, Method: STANDARD PLATE): inactive; negative | mutagenic call (Test System: AMES SALMONELLA TYPHIMURIUM, Strain/Indicator: TA1538, Metabolic Activation: NONE, Method: STANDARD PLATE): inactive; negative | mutagenic call (Test System: AMES SALMONELLA TYPHIMURIUM, Strain/Indicator: TA1538, Metabolic Activation: RAT, LIVER, S-9, AROCLOR 1254, Method: STANDARD PLATE): inactive; negative | mutagenic call (Test System: AMES SALMONELLA TYPHIMURIUM, Strain/Indicator: TA1538, Metabolic Activation: RAT, LIVER, S-9, Method: STANDARD PLATE): inactive; negative | mutagenic call (Test System: Ames Salmonella typhimurium, Strain/Indicator: TA98, Metabolic Activation: None, Method: Plate incorporation): inactive; negative | mutagenic call (Test System: Ames Salmonella typhimurium, Strain/Indicator: TA98, Metabolic Activation: Rat, Kidney, S9, Aroclor 1254 with NADP, Method: Preincubation): inactive; negative | mutagenic call (Test System: Ames Salmonella typhimurium, Strain/Indicator: TA98, Metabolic Activation: Rat, Kidney, S9, Aroclor 1254 with arachidonic acid instead of NADP, Method: Preincubation): inactive; negative | mutagenic call (Test System: Ames Salmonella typhimurium, Strain/Indicator: TA98, Metabolic Activation: Rat, Liver, S9, Aroclor 1254, Method: Preincubation): inactive; negative | mutagenic call (Test System: Ames Salmonella typhimurium, Strain/Indicator: TA100, Metabolic Activation: None, Method: Plate incorporation): inactive; negative | mutagenic call (Test System: Ames Salmonella typhimurium, Strain/Indicator: TA100, Metabolic Activation: Rat, Kidney, S9, Aroclor 1254 with NADP, Method: Preincubation): inactive; negative | mutagenic call (Test System: Ames Salmonella typhimurium, Strain/Indicator: TA100, Metabolic Activation: Rat, Kidney, S9, Aroclor 1254 with arachidonic acid instead of NADP, Method: Preincubation): inactive; negative | mutagenic call (Test System: Ames Salmonella typhimurium, Strain/Indicator: TA100, Metabolic Activation: Rat, Liver, S9, Aroclor 1254, Method: Preincubation): inactive; negative | mutagenic call (Test System: Ames Salmonella typhimurium, Strain/Indicator: TA102, Metabolic Activation: None, Method: Plate incorporation): inactive; negative. significant decrease at three highest doses. | mutagenic call (Test System: Ames Salmonella typhimurium, Strain/Indicator: TA102, Metabolic Activation: Rat, Kidney, S9, Aroclor 1254 with NADP, Method: Preincubation): inactive; negative | mutagenic call (Test System: Ames Salmonella typhimurium, Strain/Indicator: TA102, Metabolic Activation: Rat, Kidney, S9, Aroclor 1254 with arachidonic acid instead of NADP, Method: Preincubation): inactive; negative | mutagenic call (Test System: Ames Salmonella typhimurium, Strain/Indicator: TA102, Metabolic Activation: Rat, Liver, S9, Aroclor 1254, Method: Preincubation): inactive; negative | mutagenic call (Test System: Ames Salmonella typhimurium, Strain/Indicator: TA1537, Metabolic Activation: None, Method: Plate incorporation): inactive; negative | mutagenic call (Test System: Ames Salmonella typhimurium, Strain/Indicator: TA1537, Metabolic Activation: Rat, Kidney, S9, Aroclor 1254 with NADP, Method: Preincubation): inactive; negative | mutagenic call (Test System: Ames Salmonella typhimurium, Strain/Indicator: TA1537, Metabolic Activation: Rat, Kidney, S9, Aroclor 1254 with arachidonic acid instead of NADP, Method: Preincubation): inactive; negative | mutagenic call (Test System: Ames Salmonella typhimurium, Strain/Indicator: TA1537, Metabolic Activation: Rat, Liver, S9, Aroclor 1254, Method: Preincubation): inactive; negative | mutagenic call (Test System: E. COLI, Strain/Indicator: WP2 UVRA, Metabolic Activation: HAMSTER, LIVER, S-9, AROCLOR 1254, Method: STANDARD PLATE): inactive; negative | mutagenic call (Test System: E. COLI, Strain/Indicator: WP2 UVRA, Metabolic Activation: HAMSTER, LIVER, S-9, Method: STANDARD PLATE): inactive; negative | mutagenic call (Test System: E. COLI, Strain/Indicator: WP2 UVRA, Metabolic Activation: MOUSE, LIVER, S-9, AROCLOR 1254, Method: STANDARD PLATE): inactive; negative | mutagenic call (Test System: E. COLI, Strain/Indicator: WP2 UVRA, Metabolic Activation: MOUSE, LIVER, S-9, Method: STANDARD PLATE): inactive; negative | mutagenic call (Test System: E. COLI, Strain/Indicator: WP2 UVRA, Metabolic Activation: NONE, Method: STANDARD PLATE): inactive; negative | mutagenic call (Test System: E. COLI, Strain/Indicator: WP2 UVRA, Metabolic Activation: RAT, LIVER, S-9, AROCLOR 1254, Method: STANDARD PLATE): inactive; negative | mutagenic call (Test System: E. COLI, Strain/Indicator: WP2 UVRA, Metabolic Activation: RAT, LIVER, S-9, Method: STANDARD PLATE): inactive; negative | mutagenic call (Test System: MOUSE LYMPHOMA, Strain/Indicator: L5178Y (TK+/TK-), Metabolic Activation: NONE, Method: SUSPENSION/PLATE): inactive; negative | mutagenic call (Test System: MOUSE LYMPHOMA, Strain/Indicator: L5178Y (TK+/TK-), Metabolic Activation: RAT, LIVER, S-9, AROCLOR 1254, Method: SUSPENSION/PLATE): inactive; negative | mutagenic call (Test System: MOUSE LYMPHOMA, Strain/Indicator: L5178Y (TK+/TK-), Metabolic Activation: RAT, LIVER, S-9, Method: SUSPENSION/PLATE): inactive; negative | mutagenic call (Test System: Mouse lymphoma, Strain/Indicator: L5178Y (tk+/tk-), Metabolic Activation: None, Method: Microwell): active; positive. small colonies only.
